From ChEMBL document CHEMBL1152306, “Characterization of novel furan compounds on the basis of their radical scavenging activity and cytoprotective effects against glutamate- and lipopolysaccharide-induced insults” (Bioorg Med Chem, 2008)
Activity calls are given as the source filed them. The calls are words filed in the database; no cut-off is given here.

Columns and labels:
THP-1 = assay: Cytoprotective activity against LPS-induced cell death in human THP1 cells at 10 uM pretreated for 24 hrs prior to LPS challenge measured after 24 hrs by MTT assay; type: functional, cell-based
[1] = molecular target: Prostaglandin G/H synthase 1 (Homo sapiens, UniProt P23219); assay: Inhibition of COX1
[2] = molecular target: T1, Prostaglandin G/H synthase 2 (Homo sapiens, UniProt P35354); assay: Inhibition of COX2
T1 sequence (P35354 whole entry): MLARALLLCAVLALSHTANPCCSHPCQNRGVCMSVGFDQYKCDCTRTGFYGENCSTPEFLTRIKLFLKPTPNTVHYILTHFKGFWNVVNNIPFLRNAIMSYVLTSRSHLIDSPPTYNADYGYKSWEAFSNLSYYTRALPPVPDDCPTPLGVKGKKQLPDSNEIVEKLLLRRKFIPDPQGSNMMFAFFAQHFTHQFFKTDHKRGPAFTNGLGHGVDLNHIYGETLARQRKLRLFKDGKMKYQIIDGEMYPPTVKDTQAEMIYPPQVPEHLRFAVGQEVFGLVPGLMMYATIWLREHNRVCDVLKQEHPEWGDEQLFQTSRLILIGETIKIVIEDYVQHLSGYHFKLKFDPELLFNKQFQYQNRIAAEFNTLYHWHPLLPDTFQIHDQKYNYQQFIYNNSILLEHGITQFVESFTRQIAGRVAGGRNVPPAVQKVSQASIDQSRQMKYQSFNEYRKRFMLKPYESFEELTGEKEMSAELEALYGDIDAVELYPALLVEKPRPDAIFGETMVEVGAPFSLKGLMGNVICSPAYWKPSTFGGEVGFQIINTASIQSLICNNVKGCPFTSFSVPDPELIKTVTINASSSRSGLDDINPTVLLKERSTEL

[3] = molecular target: T2, Polyunsaturated fatty acid 5-lipoxygenase (Homo sapiens, UniProt P09917); assay: Inhibition of 5LOX
T2 sequence (P09917 whole entry): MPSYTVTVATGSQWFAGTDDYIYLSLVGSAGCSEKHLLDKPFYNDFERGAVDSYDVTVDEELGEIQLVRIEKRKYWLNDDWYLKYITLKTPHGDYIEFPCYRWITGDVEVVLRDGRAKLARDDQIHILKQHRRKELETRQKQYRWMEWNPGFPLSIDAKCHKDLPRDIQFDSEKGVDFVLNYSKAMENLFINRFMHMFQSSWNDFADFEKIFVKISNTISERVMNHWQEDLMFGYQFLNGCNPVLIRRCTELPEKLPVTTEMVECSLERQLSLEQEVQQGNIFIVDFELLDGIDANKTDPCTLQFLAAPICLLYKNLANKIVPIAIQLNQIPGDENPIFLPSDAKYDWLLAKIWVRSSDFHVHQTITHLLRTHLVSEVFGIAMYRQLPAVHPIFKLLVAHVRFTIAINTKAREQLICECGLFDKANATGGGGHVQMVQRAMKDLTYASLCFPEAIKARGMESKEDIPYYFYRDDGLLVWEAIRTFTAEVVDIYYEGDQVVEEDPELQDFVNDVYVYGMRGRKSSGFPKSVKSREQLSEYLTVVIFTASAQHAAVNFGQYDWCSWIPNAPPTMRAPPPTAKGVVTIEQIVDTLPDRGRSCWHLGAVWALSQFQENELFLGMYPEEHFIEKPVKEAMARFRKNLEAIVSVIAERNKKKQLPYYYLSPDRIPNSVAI

[4] = Radical scavenging activity assessed as suppression of MeO-AMVN-induced beta-carotene oxidation in benzene solution; type: physicochemical
[5] = Radical scavenging activity assessed as rate constant; type: physicochemical
[6] = Radical scavenging activity assessed as relative reactivity against beta-carotene in benzene solution; type: physicochemical
[7] = Radical scavenging activity assessed as relative reactivity against beta-carotene in 2,2-azobis[2-(2-imidazolin-2-yl)-propane]dihydrochloride solution; type: physicochemical
[8] = Radical scavenging activity assessed as relative reactivity against beta-carotene in MeO-AMVN solution; type: physicochemical
PC-12 [9] = assay: Cytoprotective activity against 6-OHDA-induced cell death in rat PC12 cells at 25 uM pretreated for 24 hrs prior to 6-OHDA challenge measured after 24 hrs by MTT assay; type: functional, cell-based
PC-12 [10] = assay: Cytoprotective activity against 6-OHDA-induced cell death in rat PC12 cells at 50 uM pretreated for 24 hrs prior to 6-OHDA challenge measured after 24 hrs by MTT assay; type: functional, cell-based
PC-12 [11] = assay: Cytoprotective activity against 13(S)-HpODE-induced cell death in rat PC12 cells pretreated for 24 hrs prior to 13(S)-HpODE challenge measured after 24 hrs by MTT assay; type: functional, cell-based
PC-12 [12] = assay: Cytoprotective activity against LPS-induced cell death in rat PC12 cells at 1 to 50 uM pretreated for 24 hrs prior to LPS challenge measured after 24 hrs by MTT assay; type: functional, cell-based
Cerebral cortex neuron [13] = assay: Neuroprotective activity against glutamate-induced neuronal cell death in Sprague-Dawley rat primary cortical neuron at 1 uM pretreated for 24 hrs prior to glutamate challenge measured after 24 hrs by MTT assay; type: functional, cell-based
Cerebral cortex neuron [14] = assay: Neuroprotective activity against glutamate-induced neuronal cell death in Sprague-Dawley rat primary cortical neuron at 1 uM administered simultaneously with glutamate after 24 hrs by MTT assay; type: functional, cell-based
Cerebral cortex neuron [15] = assay: Neuroprotective activity against glutamate-induced neuronal cell death in Sprague-Dawley rat primary cortical neuron at 2.5 uM pretreated for 24 hrs prior to glutamate challenge measured after 24 hrs by MTT assay; type: functional, cell-based
Cerebral cortex neuron [16] = assay: Neuroprotective activity against glutamate-induced neuronal cell death in Sprague-Dawley rat primary cortical neuron at 0.25 uM pretreated for 24 hrs prior to glutamate challenge measured after 24 hrs by MTT assay; type: functional, cell-based
Cerebral cortex neuron [17] = assay: Neuroprotective activity against glutamate-induced neuronal cell death in Sprague-Dawley rat primary cortical neuron at 0.25 uM administered simultaneously with glutamate after 24 hrs by MTT assay; type: functional, cell-based

Prostaglandin G/H synthase 1, sequence (P23219 whole entry): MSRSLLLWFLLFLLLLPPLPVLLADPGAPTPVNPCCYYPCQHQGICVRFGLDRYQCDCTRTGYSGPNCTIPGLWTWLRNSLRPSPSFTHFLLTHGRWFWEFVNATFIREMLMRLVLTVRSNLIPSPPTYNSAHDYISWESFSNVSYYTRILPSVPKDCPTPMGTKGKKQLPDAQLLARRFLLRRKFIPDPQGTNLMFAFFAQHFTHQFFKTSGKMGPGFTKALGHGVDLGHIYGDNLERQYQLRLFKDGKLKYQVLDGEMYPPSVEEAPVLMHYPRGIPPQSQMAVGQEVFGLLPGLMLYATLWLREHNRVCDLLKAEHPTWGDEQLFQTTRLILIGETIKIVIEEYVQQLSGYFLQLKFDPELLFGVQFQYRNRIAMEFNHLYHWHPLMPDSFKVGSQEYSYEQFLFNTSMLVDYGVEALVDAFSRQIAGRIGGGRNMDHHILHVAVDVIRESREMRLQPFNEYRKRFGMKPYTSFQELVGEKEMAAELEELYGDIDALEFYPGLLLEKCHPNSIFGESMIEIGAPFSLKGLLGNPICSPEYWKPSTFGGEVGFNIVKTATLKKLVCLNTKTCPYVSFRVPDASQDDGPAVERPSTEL

| Structure (SMILES) | IC50 [1] [µM] | IC50 [2] [µM] | IC50 [3] [µM] | Activity [4] | K [5] | Activity [6] | Activity [7] | Activity [8] | Activity (THP-1) | Activity (PC-12 [11]) | Activity (PC-12 [12]) | further results |
| --- | --- | --- | --- | --- | --- | --- | --- | --- | --- | --- | --- | --- |
| CCc1ccc(-c2ccc(O)c(OC)c2)o1 | 13 | 9.4 | 0.53 | Dose-dependent effect | 2 ×10⁴ /M/s | 0.58 | 0.69 | 1.1 | Active | Active | Active | Activity (PC-12 [9]): Active; Activity (PC-12 [10]): Active |
| Cc1c(C)c2c(c(C)c1O)CC[C@@](C)(CCC[C@H](C)CCC[C@H](C)CCCC(C)C)O2 [ALPHA-TOCOPHEROL] |  |  |  |  | 1 ×10⁶ /M/s |  |  |  |  |  |  | Activity (Cerebral cortex neuron [15]): Active |
| CC(C)=CCC/C(C)=C/CC/C(C)=C/CC[C@]1(C)CCc2c(C)c(O)c(C)c(C)c2O1 |  |  |  |  |  |  |  |  |  |  |  | Activity (Cerebral cortex neuron [16]): Active; Activity (Cerebral cortex neuron [17]): Active |

The next lines start with results.

| IC50 [1] [µM] | IC50 [2] [µM] | IC50 [3] [µM] | Activity [4] | K [5] | Activity [6] | Activity [7] | Activity [8] | Structure (SMILES) | Activity (THP-1) | Activity (PC-12 [11]) | Activity (PC-12 [12]) | further results |
| --- | --- | --- | --- | --- | --- | --- | --- | --- | --- | --- | --- | --- |
| 129 | 125 |  |  |  |  |  |  | CCCCC[C@H](O)CC(=O)CCc1ccc(O)c(OC)c1 [GINGEROL] |  |  |  |  |
| 62 | 8.4 | 2.6 | Dose-dependent effect | 3 ×10⁴ /M/s | 0.62 | 1 | 1.3 | CCCCCCc1ccc(-c2ccc(O)c(OC)c2)o1 | Active | Active | Active | Activity (Cerebral cortex neuron [13]): Active; Activity (Cerebral cortex neuron [14]): Active |
|  |  | 7.4 |  |  |  |  |  | CCCCC/C=C/C(=O)CCc1ccc(O)c(OC)c1 [SHOGAOL] |  |  |  |  |
